Measured values: patent US20100298270A1, “Novel Compounds and Methods of Using Them” (SYNDAX PHARMACEUTICALS, INC., priority 2007, published 2010)

melting point: 145 °C
Compound: O=C(NCc1ccn(O)c(=O)c1)OCc1cccnc1 [Example 14, Pyridin-3-ylmethyl (1-hydroxy-2-oxo-1,2-dihydropyridin-4-yl)methylcarbamate]
